ChEMBL document CHEMBL1139192, “Novel bis(indolyl)maleimide pyridinophanes that are potent, selective inhibitors of glycogen synthase kinase-3” (Bioorg Med Chem Lett, 2007)

Legend:
[1] = target: Tyrosine-protein kinase ABL1 (Mus musculus) (UniProt P00520); assay: Residual activity of mouse Abl kinase at 1 uM relative to control
[2] = target: Tyrosine-protein kinase receptor UFO (Homo sapiens) (UniProt P30530); assay: Residual activity of human Axl at 1 uM relative to control
[3] = target: T1, Serine/threonine-protein kinase Nek2 (Homo sapiens) (UniProt P51955); assay: Inhibition of human NEK2 at 1 uM relative to control; values are per cent of control
T1 sequence (whole entry): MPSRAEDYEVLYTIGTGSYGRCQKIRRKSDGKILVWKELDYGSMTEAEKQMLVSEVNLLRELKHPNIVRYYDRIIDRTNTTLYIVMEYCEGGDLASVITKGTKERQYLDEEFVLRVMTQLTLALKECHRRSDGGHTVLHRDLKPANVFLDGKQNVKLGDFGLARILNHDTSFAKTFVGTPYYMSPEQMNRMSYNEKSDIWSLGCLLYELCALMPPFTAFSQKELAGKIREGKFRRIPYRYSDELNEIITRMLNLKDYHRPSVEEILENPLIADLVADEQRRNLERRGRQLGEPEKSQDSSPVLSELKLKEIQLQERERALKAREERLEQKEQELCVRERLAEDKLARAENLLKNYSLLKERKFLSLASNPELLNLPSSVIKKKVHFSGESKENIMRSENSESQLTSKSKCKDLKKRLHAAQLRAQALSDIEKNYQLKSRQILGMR

[4] = target: Ribosomal protein S6 kinase alpha-2 (Homo sapiens) (UniProt Q15349); assay: Inhibition of human Rsk2 at 1 uM relative to control; values are per cent of control
[5] = target: Proto-oncogene tyrosine-protein kinase ROS (Homo sapiens) (UniProt P08922); assay: Inhibition of human Ros kinase at 1 uM relative to control; values are per cent of control
[6] = target: Insulin receptor (Homo sapiens) (UniProt P06213); assay: Residual activity of human IR at 1 uM relative to control
[7] = target: Rho-associated protein kinase 2 (Rattus norvegicus) (UniProt Q62868); assay: Residual activity of rat ROCK2 at 1 uM relative to control
[8] = target: Protein kinase C alpha type (Homo sapiens) (UniProt P17252); assay: Residual activity of human PKCalpha at 1 uM relative to control
[9] = target: T2, Protein kinase C epsilon type (Homo sapiens) (UniProt Q02156); assay: Residual activity of human PKCepsilon at 1 uM relative to control
T2 sequence (whole entry): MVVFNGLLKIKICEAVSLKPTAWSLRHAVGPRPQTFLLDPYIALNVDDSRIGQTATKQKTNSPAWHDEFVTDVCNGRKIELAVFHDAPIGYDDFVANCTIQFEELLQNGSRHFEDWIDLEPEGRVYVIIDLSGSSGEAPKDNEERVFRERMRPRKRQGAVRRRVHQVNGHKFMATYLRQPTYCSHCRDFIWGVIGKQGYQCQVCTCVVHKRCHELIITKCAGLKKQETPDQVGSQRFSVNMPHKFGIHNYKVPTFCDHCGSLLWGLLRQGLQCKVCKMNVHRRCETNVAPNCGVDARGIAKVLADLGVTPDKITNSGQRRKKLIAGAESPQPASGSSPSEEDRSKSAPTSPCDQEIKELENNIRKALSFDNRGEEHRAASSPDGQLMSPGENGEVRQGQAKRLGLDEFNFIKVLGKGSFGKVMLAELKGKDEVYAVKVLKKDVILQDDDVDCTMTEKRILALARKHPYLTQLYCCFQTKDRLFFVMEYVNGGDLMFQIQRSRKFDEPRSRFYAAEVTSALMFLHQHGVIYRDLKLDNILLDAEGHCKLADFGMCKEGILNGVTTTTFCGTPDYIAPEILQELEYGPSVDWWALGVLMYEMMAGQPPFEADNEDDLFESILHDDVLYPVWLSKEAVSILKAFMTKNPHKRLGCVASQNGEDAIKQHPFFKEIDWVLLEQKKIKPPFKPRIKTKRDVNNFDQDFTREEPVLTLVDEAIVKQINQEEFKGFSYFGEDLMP

[10] = target: Tyrosine-protein kinase Fyn (Homo sapiens) (UniProt P06241); assay: Inhibition of human Fyn at 1 uM relative to control; values are per cent of control
[11] = target: T3, Inhibitor of nuclear factor kappa-B kinase subunit beta (Homo sapiens) (UniProt O14920); assay: Residual activity of human IKK-beta at 1 uM relative to control
T3 sequence (whole entry): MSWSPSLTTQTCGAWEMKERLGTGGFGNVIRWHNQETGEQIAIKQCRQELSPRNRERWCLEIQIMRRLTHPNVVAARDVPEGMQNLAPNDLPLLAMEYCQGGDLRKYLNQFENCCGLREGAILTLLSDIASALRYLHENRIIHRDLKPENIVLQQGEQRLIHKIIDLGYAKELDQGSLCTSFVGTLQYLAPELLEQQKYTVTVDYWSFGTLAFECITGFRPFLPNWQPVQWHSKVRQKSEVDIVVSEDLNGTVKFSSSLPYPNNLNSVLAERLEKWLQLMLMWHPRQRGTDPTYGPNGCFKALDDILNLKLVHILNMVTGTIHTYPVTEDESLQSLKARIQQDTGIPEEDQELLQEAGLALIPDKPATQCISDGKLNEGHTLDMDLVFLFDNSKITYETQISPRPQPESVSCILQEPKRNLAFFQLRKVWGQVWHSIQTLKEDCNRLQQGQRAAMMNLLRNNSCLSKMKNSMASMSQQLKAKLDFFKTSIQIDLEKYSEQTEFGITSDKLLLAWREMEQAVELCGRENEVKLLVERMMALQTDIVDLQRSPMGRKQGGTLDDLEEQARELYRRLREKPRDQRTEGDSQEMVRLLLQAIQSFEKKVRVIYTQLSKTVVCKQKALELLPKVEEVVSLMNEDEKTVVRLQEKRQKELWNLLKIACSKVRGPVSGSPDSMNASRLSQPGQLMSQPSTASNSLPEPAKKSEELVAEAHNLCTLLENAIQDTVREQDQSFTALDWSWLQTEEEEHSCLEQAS

[12] = target: Protein kinase C beta type (Homo sapiens, UniProt P05771); assay: Inhibition of human recombinant PKCbeta2
Protein kinase C beta type, sequence (P05771 whole entry): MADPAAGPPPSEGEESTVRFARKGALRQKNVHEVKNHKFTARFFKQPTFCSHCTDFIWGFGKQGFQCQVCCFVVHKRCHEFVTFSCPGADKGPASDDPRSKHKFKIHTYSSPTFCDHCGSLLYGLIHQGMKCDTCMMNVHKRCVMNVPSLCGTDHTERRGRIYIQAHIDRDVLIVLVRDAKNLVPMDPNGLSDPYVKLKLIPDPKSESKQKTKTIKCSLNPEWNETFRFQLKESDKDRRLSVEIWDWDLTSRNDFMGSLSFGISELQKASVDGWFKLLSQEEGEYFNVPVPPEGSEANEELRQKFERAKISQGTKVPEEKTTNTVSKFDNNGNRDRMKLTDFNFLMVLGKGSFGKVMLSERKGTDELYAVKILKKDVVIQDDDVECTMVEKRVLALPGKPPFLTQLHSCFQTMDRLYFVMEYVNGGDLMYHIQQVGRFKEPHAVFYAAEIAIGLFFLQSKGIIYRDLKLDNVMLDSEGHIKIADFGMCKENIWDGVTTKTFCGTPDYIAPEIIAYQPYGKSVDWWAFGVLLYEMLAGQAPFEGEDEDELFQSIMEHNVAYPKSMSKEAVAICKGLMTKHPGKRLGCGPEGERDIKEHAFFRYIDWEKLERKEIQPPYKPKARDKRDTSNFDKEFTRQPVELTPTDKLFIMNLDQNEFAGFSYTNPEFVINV

Tyrosine-protein kinase ABL1 (Mus musculus), sequence (P00520 whole entry): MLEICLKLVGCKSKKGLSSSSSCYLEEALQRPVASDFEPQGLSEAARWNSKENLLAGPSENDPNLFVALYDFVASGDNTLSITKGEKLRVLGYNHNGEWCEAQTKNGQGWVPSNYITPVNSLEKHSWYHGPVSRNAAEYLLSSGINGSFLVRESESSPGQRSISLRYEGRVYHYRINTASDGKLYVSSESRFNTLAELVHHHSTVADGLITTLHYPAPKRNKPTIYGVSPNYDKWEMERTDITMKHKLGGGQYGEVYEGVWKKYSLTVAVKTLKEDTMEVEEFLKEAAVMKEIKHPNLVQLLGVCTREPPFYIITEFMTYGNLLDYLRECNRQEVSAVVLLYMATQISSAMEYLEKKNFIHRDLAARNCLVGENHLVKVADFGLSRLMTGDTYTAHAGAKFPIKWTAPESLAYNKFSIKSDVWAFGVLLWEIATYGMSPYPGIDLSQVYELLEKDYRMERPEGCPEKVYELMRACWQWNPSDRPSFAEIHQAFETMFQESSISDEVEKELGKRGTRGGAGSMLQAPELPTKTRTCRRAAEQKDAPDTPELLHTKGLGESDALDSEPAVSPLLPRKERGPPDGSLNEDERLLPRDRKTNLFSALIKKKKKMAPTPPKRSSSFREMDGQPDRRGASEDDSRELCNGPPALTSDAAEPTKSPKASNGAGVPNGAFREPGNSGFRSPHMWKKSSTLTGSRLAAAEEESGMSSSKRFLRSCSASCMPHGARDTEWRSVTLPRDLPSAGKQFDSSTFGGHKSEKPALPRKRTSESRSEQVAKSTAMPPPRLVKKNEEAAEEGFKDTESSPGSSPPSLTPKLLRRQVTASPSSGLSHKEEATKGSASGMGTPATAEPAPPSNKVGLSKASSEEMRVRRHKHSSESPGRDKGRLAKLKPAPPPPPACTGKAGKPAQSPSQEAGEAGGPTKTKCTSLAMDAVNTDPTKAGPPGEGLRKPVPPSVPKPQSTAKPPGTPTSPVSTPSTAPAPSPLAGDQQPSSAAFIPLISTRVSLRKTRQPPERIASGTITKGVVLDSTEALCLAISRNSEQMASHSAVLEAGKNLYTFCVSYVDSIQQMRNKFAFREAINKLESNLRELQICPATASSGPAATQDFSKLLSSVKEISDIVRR
Insulin receptor (Homo sapiens), sequence (P06213 whole entry, looked up): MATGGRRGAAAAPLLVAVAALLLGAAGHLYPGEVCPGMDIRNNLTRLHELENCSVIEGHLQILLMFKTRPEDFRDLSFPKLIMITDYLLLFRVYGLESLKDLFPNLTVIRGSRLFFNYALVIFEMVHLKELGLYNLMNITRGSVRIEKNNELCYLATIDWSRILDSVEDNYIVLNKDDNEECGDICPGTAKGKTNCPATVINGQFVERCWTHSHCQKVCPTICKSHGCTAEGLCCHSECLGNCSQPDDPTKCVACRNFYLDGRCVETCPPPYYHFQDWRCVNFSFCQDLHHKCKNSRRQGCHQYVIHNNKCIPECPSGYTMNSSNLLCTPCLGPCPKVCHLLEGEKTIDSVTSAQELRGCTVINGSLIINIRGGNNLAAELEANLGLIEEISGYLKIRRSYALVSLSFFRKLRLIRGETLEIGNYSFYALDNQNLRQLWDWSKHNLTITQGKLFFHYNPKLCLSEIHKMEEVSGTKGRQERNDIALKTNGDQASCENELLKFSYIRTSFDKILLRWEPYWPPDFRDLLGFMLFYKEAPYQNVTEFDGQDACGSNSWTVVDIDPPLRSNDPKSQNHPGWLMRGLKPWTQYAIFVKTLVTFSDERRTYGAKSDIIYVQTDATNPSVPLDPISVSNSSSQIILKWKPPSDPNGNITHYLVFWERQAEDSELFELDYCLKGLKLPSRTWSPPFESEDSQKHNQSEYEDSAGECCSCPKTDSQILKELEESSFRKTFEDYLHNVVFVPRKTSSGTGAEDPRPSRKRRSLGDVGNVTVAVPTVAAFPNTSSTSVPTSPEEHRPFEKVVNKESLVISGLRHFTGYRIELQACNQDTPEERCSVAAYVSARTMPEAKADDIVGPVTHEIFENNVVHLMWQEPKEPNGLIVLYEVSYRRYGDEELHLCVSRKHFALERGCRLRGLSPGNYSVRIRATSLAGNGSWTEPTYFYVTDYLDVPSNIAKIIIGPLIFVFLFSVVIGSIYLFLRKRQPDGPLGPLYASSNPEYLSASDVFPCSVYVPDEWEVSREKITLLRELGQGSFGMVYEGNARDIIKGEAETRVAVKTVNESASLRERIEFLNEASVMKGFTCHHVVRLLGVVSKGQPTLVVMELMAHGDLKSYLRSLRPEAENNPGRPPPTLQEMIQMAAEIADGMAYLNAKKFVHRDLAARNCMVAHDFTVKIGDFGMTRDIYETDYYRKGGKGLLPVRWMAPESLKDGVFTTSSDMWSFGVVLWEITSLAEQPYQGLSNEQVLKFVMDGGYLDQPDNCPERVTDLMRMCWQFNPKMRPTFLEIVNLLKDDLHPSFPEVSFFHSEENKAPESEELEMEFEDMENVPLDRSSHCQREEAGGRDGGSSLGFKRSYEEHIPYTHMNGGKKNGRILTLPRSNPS
Tyrosine-protein kinase Fyn (Homo sapiens), sequence (P06241 2-537 limits assumed): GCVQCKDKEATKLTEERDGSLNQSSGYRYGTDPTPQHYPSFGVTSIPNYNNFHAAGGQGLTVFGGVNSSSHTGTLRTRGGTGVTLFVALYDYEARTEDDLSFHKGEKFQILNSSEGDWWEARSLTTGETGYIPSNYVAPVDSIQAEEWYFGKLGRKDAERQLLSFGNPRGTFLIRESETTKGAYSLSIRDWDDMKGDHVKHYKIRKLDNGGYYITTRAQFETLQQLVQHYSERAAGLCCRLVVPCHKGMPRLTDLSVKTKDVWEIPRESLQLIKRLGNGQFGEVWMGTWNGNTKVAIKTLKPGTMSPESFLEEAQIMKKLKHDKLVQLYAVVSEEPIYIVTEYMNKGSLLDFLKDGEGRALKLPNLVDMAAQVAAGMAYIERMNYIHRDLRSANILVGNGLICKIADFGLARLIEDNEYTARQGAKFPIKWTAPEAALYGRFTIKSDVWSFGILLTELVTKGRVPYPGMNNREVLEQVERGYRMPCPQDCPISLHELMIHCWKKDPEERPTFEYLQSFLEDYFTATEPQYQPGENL
Rho-associated protein kinase 2 (Rattus norvegicus), sequence (Q62868 whole entry, looked up): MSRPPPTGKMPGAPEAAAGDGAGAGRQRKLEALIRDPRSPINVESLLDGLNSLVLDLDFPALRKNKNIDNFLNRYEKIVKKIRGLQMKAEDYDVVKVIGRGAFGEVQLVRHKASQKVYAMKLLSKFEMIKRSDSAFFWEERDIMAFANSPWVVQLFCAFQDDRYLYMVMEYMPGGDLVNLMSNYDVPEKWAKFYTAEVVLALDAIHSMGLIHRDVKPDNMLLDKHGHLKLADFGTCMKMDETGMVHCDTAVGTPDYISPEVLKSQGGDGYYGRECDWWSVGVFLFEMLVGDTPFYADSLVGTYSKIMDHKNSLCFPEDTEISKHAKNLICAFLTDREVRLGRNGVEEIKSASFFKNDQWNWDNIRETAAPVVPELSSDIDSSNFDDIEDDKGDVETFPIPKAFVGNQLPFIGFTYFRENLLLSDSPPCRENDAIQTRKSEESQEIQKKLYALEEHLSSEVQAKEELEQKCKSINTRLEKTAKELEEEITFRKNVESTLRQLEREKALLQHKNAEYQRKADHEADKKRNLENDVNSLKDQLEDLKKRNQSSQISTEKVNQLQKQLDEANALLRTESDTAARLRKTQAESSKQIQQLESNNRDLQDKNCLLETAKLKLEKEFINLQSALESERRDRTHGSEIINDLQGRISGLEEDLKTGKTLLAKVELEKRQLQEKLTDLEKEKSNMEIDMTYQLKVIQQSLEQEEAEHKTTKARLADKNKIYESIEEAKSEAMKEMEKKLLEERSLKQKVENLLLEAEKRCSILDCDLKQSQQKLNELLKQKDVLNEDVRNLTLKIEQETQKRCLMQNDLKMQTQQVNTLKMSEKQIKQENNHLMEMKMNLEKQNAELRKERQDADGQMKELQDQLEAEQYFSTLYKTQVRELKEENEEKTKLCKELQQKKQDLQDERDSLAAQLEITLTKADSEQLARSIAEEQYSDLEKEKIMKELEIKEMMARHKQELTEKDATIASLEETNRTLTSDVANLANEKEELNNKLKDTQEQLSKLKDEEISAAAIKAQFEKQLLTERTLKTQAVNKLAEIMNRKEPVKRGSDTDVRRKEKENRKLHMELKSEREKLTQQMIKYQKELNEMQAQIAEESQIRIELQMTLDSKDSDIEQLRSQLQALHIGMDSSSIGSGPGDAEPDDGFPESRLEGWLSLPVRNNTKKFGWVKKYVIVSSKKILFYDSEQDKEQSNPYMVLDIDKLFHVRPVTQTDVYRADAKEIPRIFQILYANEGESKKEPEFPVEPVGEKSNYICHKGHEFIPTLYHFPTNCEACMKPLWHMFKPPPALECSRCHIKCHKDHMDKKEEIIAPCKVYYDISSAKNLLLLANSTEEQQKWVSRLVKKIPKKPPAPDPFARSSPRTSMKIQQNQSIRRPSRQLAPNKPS

Structure (SMILES) | residual activity [1] | residual activity [2] | residual activity [3] | residual activity [4] | residual activity [5] | residual activity [6] | residual activity [7] | residual activity [8] | residual activity [9] | residual activity [10] | residual activity [11] | IC50 [12]
O=C1NC(=O)C2=C1c1cn(c3ccccc13)CCCc1ccc(c(N3CCCC3)n1)CCCn1cc2c2ccccc21 | 110% | 100% | 99% | 63% | 105% | 87% | 91% | 83% | 97% | 103% | 130% | 2200 nM
CN(C)c1nc2ccc1CCCn1cc(c3ccccc31)C1=C(C(=O)NC1=O)c1cn(c3ccccc13)CC2 | 98% | 97% | 104% | 32% | 79% | 91% | 101% | 68% | 72% | 103% | 128% | 1400 nM
CN(C)c1cc2cc(n1)CCCn1cc(c3ccccc31)C1=C(C(=O)NC1=O)c1cn(c3ccccc13)CCC2 | 108% | 104% | 102% | 10% | 108% | 102% | 92% | 74% | 83% | 106% | 124% | 2400 nM
O=C1NC(=O)C2=C1c1cn(c3ccccc13)CCCc1cc(nc(N3CCCC3)c1)CCCn1cc2c2ccccc21 | 104% | 106% | 105% | 12% | 117% | 110% | 83% | 82% | 93% | 106% | 125% | 1200 nM
